Source: ChEMBL document CHEMBL4219054, “Induction of apoptosis by pyrazolo[3,4-d]pyridazine derivative in lung cancer cells via disruption of Bcl-2/Bax expression balance” (Bioorg Med Chem, 2018)

Legend:
[1] = tested on: A549; assay: Cell cycle arrest in human A549 cells assessed as accumulation at S phase at 0.067 mM after 48 hrs by propidium iodide staining-based flow cytometric analysis (reference value: 27.04%); assay type: functional
[2] = tested on: A549; assay: Induction of apoptosis in human A549 assessed as upregulation of Bax mRNA expression level at 0.067 mM by RT-PCR analysis relative to control; assay type: functional
[3] = tested on: A549; assay: Induction of apoptosis in human A549 assessed as viable cells at 0.067 mM after 48 hrs by Annexin-V FITC/propidium iodide staining-based flow cytometric analysis (reference value: 97.42%); assay type: functional; settings: A549, 48 h, read-out: Activity
[4] = tested on: A549; assay: Induction of apoptosis in human A549 assessed as early apoptotic cells at 0.067 mM after 48 hrs by Annexin-V FITC/propidium iodide staining-based flow cytometric analysis (reference value: 0.36%); assay type: functional
[5] = tested on: A549; assay: Cell cycle arrest in human A549 cells assessed as accumulation at G2/M phase at 0.067 mM after 48 hrs by propidium iodide staining-based flow cytometric analysis (reference value: 5.34%); assay type: functional
[6] = tested on: HCT-116; assay: Antiproliferative activity against human HCT116 cells after 48 hrs by MTT assay; assay type: functional, cell-based
[7] = tested on: A549; assay: Induction of apoptosis in human A549 assessed as inhibition of Bcl2 mRNA expression level at 0.067 mM by RT-PCR analysis relative to control; assay type: functional
[8] = tested on: A549; assay: Induction of apoptosis in human A549 assessed as late apoptotic cells at 0.067 mM after 48 hrs by Annexin-V FITC/propidium iodide staining-based flow cytometric analysis (reference value: 0.21%); assay type: functional
[9] = tested on: A549; assay: Antiproliferative activity against human A549 cells after 48 hrs by MTT assay; assay type: functional, cell-based
[10] = tested on: A549; assay: Induction of apoptosis in human A549 assessed as necrotic cells at 0.067 mM after 48 hrs by Annexin-V FITC/propidium iodide staining-based flow cytometric analysis (reference value: 0.2%); assay type: functional
[11] = tested on: A549; assay: Cell cycle arrest in human A549 cells assessed as accumulation at G0/G1 phase at 0.067 mM after 48 hrs by propidium iodide staining-based flow cytometric analysis (reference value: 66.85%); assay type: functional
[12] = Antiproliferative activity against human HFB4 cells after 48 hrs by MTT assay; assay type: cell-based
[13] = tested on: A549; assay: Cell cycle arrest in human A549 cells assessed as accumulation at sub G1 phase at 0.067 mM after 48 hrs by propidium iodide staining-based flow cytometric analysis (reference value: 0.77%); assay type: functional
[14] = tested on: A549; assay: Induction of apoptosis in human A549 assessed as upregulation of p53 mRNA expression level at 0.067 mM by RT-PCR analysis relative to control; assay type: functional
[15] = tested on: A549; assay: Induction of apoptosis in human A549 assessed as upregulation of caspase-3 mRNA expression level at 0.067 mM by RT-PCR analysis relative to control; assay type: functional
[16] = tested on: HepG2; assay: Antiproliferative activity against human HepG2 cells after 48 hrs by MTT assay; assay type: functional, cell-based
[17] = tested on: WI-38; assay: Antiproliferative activity against human WI38 cells after 48 hrs by MTT assay; assay type: cell-based; settings: WI-38, 48 h

O=c1oc2ccc3ccccc3c2cc1-c1n[nH]c(=O)c2nn(-c3ccccc3)cc12
Activity [1]: 16.59% | fold change (FC) [2]: 7.28 | viability at 67 µM [3]: 86.9% | Activity [4]: 4.69% | Activity [5]: 15.11% | Activity [6]: Dose-dependent effect | IC50 ([6]; HCT-116, 48 h): 130 µM | fold change (FC) [7]: 0.22 | Activity [8]: 5.37% | Activity [9]: Dose-dependent effect | IC50 ([9]; A549, 48 h): 67 µM | Activity [10]: 1.36% | Activity [11]: 56.88% | IC50 [12]: 281 µM | Activity [13]: 11.42% | fold change (FC) [14]: 5.08 | fold change (FC) [15]: 7.19 | Activity [16]: Dose-dependent effect | IC50 ([16]; HepG2, 48 h): 115 µM | IC50 [17]: 219 µM
